PubChem BioAssay AID1963971 (Molecular Pharmacology Branch, DTP, NCI, 2024)

Test system: 953936-095-R-J2-PDC spheroids with HUVEC/MSC, viability
Experiment: Anticancer human tumor 953936-095-R-J2-PDC patient-derived cervical squamous cell carcinoma cell line growth inhibition [PI3K]
Settings: for IC50: curve of first compound; for viability, T/C: stronger effect = lower value; active = viability on the fitted dose curve at most 10% of control; inactive = the rest
Summary of the method: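 Tumor cells grown as multi-cell spheroids with HUVEC endothelial cells and MSC fibroblast-like stroma were treated with targeted agents combined with inavolisib, alpelisib, duvelisib or copanlisib. Doses fell in half-log steps from near clinical Cmax, else from 10 microM. Viability was measured.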

[1] = second compound 0.00316 µM, first compound 0.0316 µM
[2] = second compound 0.00316 µM, first compound 0.1 µM
[3] = second compound 0.00316 µM, first compound 0.316 µM
[4] = second compound 0.00316 µM, first compound 1 µM
[5] = second compound 0.00316 µM, first compound 3.16 µM
[6] = second compound 0.00316 µM, first compound 10 µM
[7] = second compound 0.01 µM, first compound 0.0316 µM
[8] = second compound 0.01 µM, first compound 0.1 µM
[9] = second compound 0.01 µM, first compound 0.316 µM
[10] = second compound 0.01 µM, first compound 1 µM
[11] = second compound 0.01 µM, first compound 3.16 µM
[12] = second compound 0.01 µM, first compound 10 µM
[13] = second compound 0.0316 µM, first compound 0.0316 µM
[14] = second compound 0.0316 µM, first compound 0.1 µM
[15] = second compound 0.0316 µM, first compound 0.316 µM
[16] = second compound 0.0316 µM, first compound 1 µM
[17] = second compound 0.0316 µM, first compound 3.16 µM
[18] = second compound 0.0316 µM, first compound 10 µM
[19] = second compound 0.1 µM, first compound 0.0316 µM
[20] = second compound 0.1 µM, first compound 0.1 µM
[21] = second compound 0.1 µM, first compound 0.316 µM
[22] = second compound 0.1 µM, first compound 1 µM
[23] = second compound 0.1 µM, first compound 3.16 µM
[24] = second compound 0.1 µM, first compound 10 µM
[25] = second compound 0.316 µM, first compound 0.0316 µM
[26] = second compound 0.316 µM, first compound 0.1 µM
[27] = second compound 0.316 µM, first compound 0.316 µM
[28] = second compound 0.316 µM, first compound 1 µM
[29] = second compound 0.316 µM, first compound 3.16 µM
[30] = second compound 0.316 µM, first compound 10 µM
[31] = second compound 1 µM, first compound 0.0316 µM
[32] = second compound 1 µM, first compound 0.1 µM
[33] = second compound 1 µM, first compound 0.316 µM
[34] = second compound 1 µM, first compound 1 µM
[35] = second compound 1 µM, first compound 3.16 µM
[36] = second compound 1 µM, first compound 10 µM
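Also: spheroids exposed to compounds for seven days before read-out.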

C#Cc1c(F)ccc2cc(O)cc(-c3ncc4c(N5CC6CCC(C5)N6)nc(OCC56CCCN5CC(F)C6)nc4c3F)c12 (stereo unspecified) + CC(Nc1ccc2c(c1)OCCn1cc(N3C(=O)OCC3C(F)F)nc1-2)C(N)=O
1020 nM: IC50 (second compound 0.1 µM)
7100 nM: IC50 (second compound 0.0316 µM)
< 31.6 nM: IC50 (second compound 0.316 µM) | IC50 (second compound 1 µM)
> 10000 nM: IC50 (second compound 0.00316 µM) | IC50 (second compound 0.01 µM)
inactive: viability, T/C [1] 95.9% | viability, T/C [2] 110% | viability, T/C [3] 89.5% | viability, T/C [4] 87.6% | viability, T/C [5] 71.6% | viability, T/C [6] 76.3% | viability, T/C [7] 92.5% | viability, T/C [8] 95% | viability, T/C [9] 80.9% | viability, T/C [10] 88.2% | viability, T/C [11] 64.8% | viability, T/C [12] 61% | viability, T/C [13] 78.3% | viability, T/C [14] 81.6% | viability, T/C [15] 76.1% | viability, T/C [16] 70% | viability, T/C [17] 61.5% | viability, T/C [18] 45.2% | viability, T/C [19] 60.1% | viability, T/C [20] 64.7% | viability, T/C [21] 57.4% | viability, T/C [22] 48.3% | viability, T/C [23] 41.2% | viability, T/C [24] 30% | viability, T/C [25] 38.3% | viability, T/C [26] 34.6% | viability, T/C [27] 36.1% | viability, T/C [28] 28.2% | viability, T/C [29] 22.6% | viability, T/C [30] 17.3% | viability, T/C [31] 24% | viability, T/C [32] 21.9% | viability, T/C [33] 21.6% | viability, T/C [34] 16% | viability, T/C [35] 12.4% | viability, T/C [36] 9.54%

CC1(C)CCC(Nc2ncc(C(F)(F)F)c(-c3c[nH]c4c(P(C)(C)=O)c(C#N)ccc34)n2)CN1 (stereo unspecified) + CC(Nc1ccc2c(c1)OCCn1cc(N3C(=O)OCC3C(F)F)nc1-2)C(N)=O
inactive: viability, T/C [1] 48.3% | viability, T/C [2] 44.8% | viability, T/C [3] 49.2% | viability, T/C [4] 58.6% | viability, T/C [5] 45.3% | viability, T/C [7] 49.9% | viability, T/C [8] 45% | viability, T/C [9] 42.8% | viability, T/C [10] 51.6% | viability, T/C [11] 50.3% | viability, T/C [13] 45.9% | viability, T/C [14] 42.4% | viability, T/C [15] 39.2% | viability, T/C [16] 40.8% | viability, T/C [17] 44.9% | viability, T/C [19] 38.5% | viability, T/C [20] 32.2% | viability, T/C [21] 35.2% | viability, T/C [22] 32.7% | viability, T/C [23] 41.1% | viability, T/C [24] 3.61% | viability, T/C [25] 21.5% | viability, T/C [26] 22.4% | viability, T/C [27] 22.4% | viability, T/C [28] 22.4% | viability, T/C [29] 19.8% | viability, T/C [30] 1.3% | viability, T/C [31] 16.5% | viability, T/C [32] 16.3% | viability, T/C [33] 17.7% | viability, T/C [34] 16.6% | viability, T/C [35] 15.7%
active: viability, T/C [6] 5.82% | viability, T/C [12] 5.56% | viability, T/C [18] 4.63% | viability, T/C [36] 0.88%
< 31.6 nM: IC50 (second compound 0.00316 µM) | IC50 (second compound 0.01 µM) | IC50 (second compound 0.0316 µM) | IC50 (second compound 0.1 µM) | IC50 (second compound 0.316 µM) | IC50 (second compound 1 µM)

Cn1cnc2c(F)c(Nc3ccc(Br)cc3Cl)c(C(=O)NOCCO)cc21 + CC(Nc1ncnc2nc[nH]c12)c1cc2cccc(Cl)c2c(=O)n1-c1ccccc1
2090 nM: IC50 (second compound 0.0316 µM)
956 nM: IC50 (second compound 0.1 µM)
< 9.49 nM: IC50 (second compound 10 µM)
732 nM: IC50 (second compound 1 µM)
inactive: viability, T/C (second compound 0.0316 µM, first compound 0.00949 µM) 79.1% | viability, T/C (second compound 0.0316 µM, first compound 0.03 µM) 78.9% | viability, T/C (second compound 0.0316 µM, first compound 0.0949 µM) 69.7% | viability, T/C (second compound 0.0316 µM, first compound 0.3 µM) 67.6% | viability, T/C (second compound 0.0316 µM, first compound 0.949 µM) 57% | viability, T/C (second compound 0.0316 µM, first compound 3 µM) 46.6% | viability, T/C (second compound 0.1 µM, first compound 0.00949 µM) 90.2% | viability, T/C (second compound 0.1 µM, first compound 0.03 µM) 86.3% | viability, T/C (second compound 0.1 µM, first compound 0.0949 µM) 77.7% | viability, T/C (second compound 0.1 µM, first compound 0.3 µM) 57.6% | viability, T/C (second compound 0.1 µM, first compound 0.949 µM) 54.7% | viability, T/C (second compound 0.1 µM, first compound 3 µM) 39.5% | viability, T/C (second compound 0.316 µM, first compound 0.00949 µM) 90.2% | viability, T/C (second compound 0.316 µM, first compound 0.03 µM) 68.8% | viability, T/C (second compound 0.316 µM, first compound 0.0949 µM) 74.2% | viability, T/C (second compound 0.316 µM, first compound 0.3 µM) 68.2% | viability, T/C (second compound 0.316 µM, first compound 0.949 µM) 53.1% | viability, T/C (second compound 0.316 µM, first compound 3 µM) 36% | viability, T/C (second compound 1 µM, first compound 0.00949 µM) 85.5% | viability, T/C (second compound 1 µM, first compound 0.03 µM) 77.3% | viability, T/C (second compound 1 µM, first compound 0.0949 µM) 65% | viability, T/C (second compound 1 µM, first compound 0.3 µM) 58.8% | viability, T/C (second compound 1 µM, first compound 0.949 µM) 48.1% | viability, T/C (second compound 1 µM, first compound 3 µM) 38.6% | viability, T/C (second compound 3.16 µM, first compound 0.00949 µM) 76.4% | viability, T/C (second compound 3.16 µM, first compound 0.03 µM) 60.5% | viability, T/C (second compound 3.16 µM, first compound 0.0949 µM) 60.4% | viability, T/C (second compound 3.16 µM, first compound 0.3 µM) 54% | viability, T/C (second compound 3.16 µM, first compound 0.949 µM) 42.5% | viability, T/C (second compound 3.16 µM, first compound 3 µM) 33.4% | viability, T/C (second compound 10 µM, first compound 0.00949 µM) 47.5% | viability, T/C (second compound 10 µM, first compound 0.03 µM) 44.4% | viability, T/C (second compound 10 µM, first compound 0.0949 µM) 38.8% | viability, T/C (second compound 10 µM, first compound 0.3 µM) 30.5% | viability, T/C (second compound 10 µM, first compound 0.949 µM) 19.5% | viability, T/C (second compound 10 µM, first compound 3 µM) 14.8%
366 nM: IC50 (second compound 3.16 µM)
1160 nM: IC50 (second compound 0.316 µM)
